In data set [1] the target is T1, recombinant human mGluR4a receptors (Homo sapiens, UniProt Q14833).
T1 construct: expressed in transfected cells
Put plainly: mGluR4 assay on HEK-expressing human mGluR4: fluorescent cell based Ca2+ mobilization assay (FLIPR). Conditions: HEK-293 cells expressing hmGluR4; potentiation of EC25 glutamate; mean of at least three independent experiments in duplicate; read-out: Ca^2+ Flux (mean EC50). An excerpt:
mGluR4 Assay on HEK-Expressing Human mGluR4
The compounds of the present invention are positive allosteric modulators of mGluR4 receptor. Their activity was examined on recombinant human mGluR4a receptors by detecting changes in intracellular Ca^2+ concentration, using the fluorescent Ca^2+-sensitive dye Fluo4-(AM) and a Fluorometric Imaging Plate Reader (FLIPR, Molecular Devices, Sunnyvale, Calif.).
The cDNA encoding the human metabotropic glutamate receptor (hmGluR4), (accession number NM_000841.1, NCBI Nucleotide database browser), was subcloned into an expression vector containing also the hygromycin resistance gene. In parallel, the cDNA encoding a G protein allowing redirection of the activation signal to intracellular calcium flux was subcloned into a different expression vector containing also the puromycin resistance gene. Transfection of both these vectors into HEK293 cells with PolyFect reagent (Qiagen) according to supplier's protocol, and hygromycin and puromycin treatment allowed selection of antibiotic resistant cells which had integrated stably one or more copies of the plasmids. Positive cellular clones expressing hmGluR4 were identified in a functional assay measuring changes in calcium fluxes in response to glutamate or selective known mGluR4 orthosteric agonists and antagonists.
HEK-293 cells expressing hmGluR4 were maintained in media containing DMEM, dialyzed Fetal Calf Serum (10%), Glutamax™ (2 mM), Penicillin (100 units/mL), Streptomycin (100 μg/mL), Geneticin (100 μg/mL) and Hygromycin-B (40 μg/mL) and puromycin (1 μg/mL) at 37° C./5% CO2.
Human mGluR4 HEK-293 cells were plated out 24 hours prior to FLIPR^384 assay in black-walled, clear-bottomed, poly-L-ornithine-coated 384-well plates at a density of 25,000 cells/well in a glutamine/glutamate free DMEM medium containing foetal bovine serum (10%), penicillin (100 units/mL) and streptomycin (100 μg/mL) at 37° C./5% CO2.
On the day of the assay, the medium was aspirated and the cells were loaded with a 3 μM solution of Fluo-4-AM (LuBioScience, Lucerne, Switzerland) in 0.03% pluronic acid. After 1 hour at 37° C./5% CO2, the non incorporated dye was removed by washing cell plate with the assay buffer and the cells were left in the dark at room temperature for […] before testing. All assays were performed in a pH 7.4 buffered-solution containing 20 mM HEPES, 143 mM NaCl, 6 mM KCl, 1 mM MgSO4, 1 mM CaCl2, 0.125 mM sulfapyrazone and 0.1% glucose.
After 10 s of basal fluorescence recording, various concentrations of the compounds of the invention were added to the cells. Changes in fluorescence levels were first monitored for 180 s in order to detect any agonist activity of the compounds. Then the cells were stimulated by an EC25 glutamate concentration for an additional 110 s in order to measure enhancing activities of the compounds of the invention. EC25 glutamate concentration is the concentration giving 25% of the maximal glutamate response.
The concentration-response curves of representative compounds of the present invention were generated using the Prism GraphPad software (Graph Pad Inc, San Diego, USA). The curves were fitted to a four-parameter logistic equation: (Y=Bottom+(Top-Bottom)/(1+10^((Log EC50−X)*Hill Slope) allowing the determination of EC50 values.
The Table 4 below represents the mean EC50 obtained from at least three independent experiments of selected molecules performed in duplicate.
(In general: A change in cytosolic calcium serves as a functional read-out for many receptors and channels.)

The values that follow come from patent US8513252B2, “Pyrazole derivatives and their use as positive allosteric modulators of metabotropic glutamate receptors” (Addex Pharma S.A., priority 2009, dated 2013).

As usually defined, the melting point is the temperature, or range, at which the solid turns liquid. The term pEC50 denotes −log10 of the EC50, conventionally taken in molar units.

Molecules are shown by their SMILES. pEC50: −log10 of the molar value.

T1 sequence (Q14833 33-912): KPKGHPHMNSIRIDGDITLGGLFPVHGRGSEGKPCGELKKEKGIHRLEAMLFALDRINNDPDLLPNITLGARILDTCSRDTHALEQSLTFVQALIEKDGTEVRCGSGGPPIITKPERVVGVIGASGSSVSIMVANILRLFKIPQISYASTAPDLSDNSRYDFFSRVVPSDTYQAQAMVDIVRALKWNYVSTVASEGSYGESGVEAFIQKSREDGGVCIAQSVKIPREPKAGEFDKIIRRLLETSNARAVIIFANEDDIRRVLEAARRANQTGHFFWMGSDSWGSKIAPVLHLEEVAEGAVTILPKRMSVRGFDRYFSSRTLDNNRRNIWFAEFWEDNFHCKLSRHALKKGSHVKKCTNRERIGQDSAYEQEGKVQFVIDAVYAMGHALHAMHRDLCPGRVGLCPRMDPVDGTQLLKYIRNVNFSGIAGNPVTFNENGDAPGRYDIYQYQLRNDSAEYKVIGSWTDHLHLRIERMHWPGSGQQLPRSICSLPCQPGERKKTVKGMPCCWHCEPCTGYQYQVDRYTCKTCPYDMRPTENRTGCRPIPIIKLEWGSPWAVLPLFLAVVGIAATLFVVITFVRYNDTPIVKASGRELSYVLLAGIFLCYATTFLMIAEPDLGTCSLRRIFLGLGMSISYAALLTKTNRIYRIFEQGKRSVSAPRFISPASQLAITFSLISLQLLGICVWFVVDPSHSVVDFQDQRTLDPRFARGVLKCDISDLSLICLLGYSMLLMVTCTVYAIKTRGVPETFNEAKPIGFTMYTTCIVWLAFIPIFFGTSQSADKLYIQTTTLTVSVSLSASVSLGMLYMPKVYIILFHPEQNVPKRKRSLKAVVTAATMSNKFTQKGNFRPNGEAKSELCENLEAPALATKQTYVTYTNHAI

Take `CC(=O)c1n[nH]cc1-c1csc(Oc2cccc(C)n2)n1` [Compound 1-9, 1-(4-(2-(6-Methylpyridin-2-yloxy)thiazol-4-yl)-1H-pyrazol-3-yl)ethanone]: the melting point is 194 to 195 °C.

In turn, `Cc1cccc(Oc2nc(-c3c[nH]nc3C)cs2)n1` [Compound 1-11, 4-(3-Methyl-1H-pyrazol-4-yl)-2-(6-methylpyridin-2-yloxy)thiazole] displayed a melting point of 138 to 139 °C.

On to `Fc1ccc(Oc2nc(-c3cn[nH]c3)cs2)nc1` [Compound 1-18, 2-(5-Fluoropyridin-2-yloxy)-4-(1H-pyrazol-4-yl)thiazole], for which the pEC50 in data set [1] was 6.00 to 7.00.

As to `Cc1[nH]ncc1-c1csc(Oc2ncccn2)n1` [Compound 1-4, 4-(5-Methyl-1H-pyrazol-4-yl)-2-(pyrimidin-2-yloxy)thiazole], the melting point came out at 177 °C.

Regarding `Cc1cccc(Oc2nc(-c3cn[nH]c3)cs2)n1` [Compound 1-10, 2-(6-Methylpyridin-2-yloxy)-4-(1H-pyrazol-4-yl)thiazole], the melting point was in the range of 176 to 178 °C. The pEC50 in data set [1] was more than 7.00.

As for `c1ccc(Oc2nc(-c3cn[nH]c3)cs2)nc1` [Compound 1-6, 4-(1H-Pyrazol-4-yl)-2-(pyridin-2-yloxy)thiazole], the melting point was in the range of 151 to 152 °C.

Consider `Fc1cccc(F)c1Oc1nc(-c2cn[nH]c2)cs1` [Compound 1-5, 2-(2,6-Difluorophenoxy)-4-(1H-pyrazol-4-yl)thiazole], for which the melting point was in the range of 131 to 135 °C. Further, in data set [1], the pEC50 is 6.00 to 7.00.

In turn, `Cc1n[nH]cc1-c1nsc(Oc2ccccc2)n1` [Compound 1-1, 3-(3-Methyl-1H-pyrazol-4-yl)-5-phenoxy-1,2,4-thiadiazole] registered a melting point of 165 to 166 °C. For the same compound, the pEC50 in data set [1] was 5.00 to 6.00.

With `N#Cc1sc(Oc2cccc(Cl)n2)nc1-c1cn[nH]c1` [Compound 1-21, 2-(6-Chloropyridin-2-yloxy)-4-(1H-pyrazol-4-yl)thiazole-5-carbonitrile], the pEC50 in data set [1] is more than 7.00.

In the case of `Cc1n[nH]cc1-c1csc(Oc2ncccc2F)n1` [Compound 1-8, 2-(3-Fluoropyridin-2-yloxy)-4-(3-methyl-1H-pyrazol-4-yl)thiazole], the melting point amounted to 160 °C.

In turn, `FC(F)(F)c1n[nH]cc1-c1nsc(Oc2ccccn2)n1` [Compound 1-2, 5-(Pyridin-2-yloxy)-3-(3-(trifluoromethyl)-1H-pyrazol-4-yl)-1,2,4-thiadiazole] gave a melting point of 245 to 247 °C. Also, in data set [1], the negative-log EC50 (pEC50) was more than 7.00.

In turn, `Cc1n[nH]cc1-c1csc(Oc2cccc(Cl)n2)n1` [Compound 1-7, 2-(6-Chloropyridin-2-yloxy)-4-(3-methyl-1H-pyrazol-4-yl)thiazole] came in with a melting point of 158 to 161 °C. For the same compound, the pEC50 in data set [1] was more than 7.00.
